# Experimental data taken from US20260115190A1, “DISPERSIONS OF ETRUMADENANT” (Arcus Biosciences, Inc., priority 2022, published 2026).
# Legend:
# [1] = test system: CYP3A4, CYP2C8, and uridine 5′-diphospho glucuronosyltransferase (UGT) enzyme isoforms; experiment: In vitro metabolism of etrumadenant; format: in vitro ADME; conditions: in vitro data
# [2] = target: T1, breast cancer resistance protein (BCRP) (Homo sapiens, UniProt Q9UNQ0); experiment: In vitro transporter substrate data (BCRP); format: in vitro ADME
# T1 sequence (Q9UNQ0 1-655): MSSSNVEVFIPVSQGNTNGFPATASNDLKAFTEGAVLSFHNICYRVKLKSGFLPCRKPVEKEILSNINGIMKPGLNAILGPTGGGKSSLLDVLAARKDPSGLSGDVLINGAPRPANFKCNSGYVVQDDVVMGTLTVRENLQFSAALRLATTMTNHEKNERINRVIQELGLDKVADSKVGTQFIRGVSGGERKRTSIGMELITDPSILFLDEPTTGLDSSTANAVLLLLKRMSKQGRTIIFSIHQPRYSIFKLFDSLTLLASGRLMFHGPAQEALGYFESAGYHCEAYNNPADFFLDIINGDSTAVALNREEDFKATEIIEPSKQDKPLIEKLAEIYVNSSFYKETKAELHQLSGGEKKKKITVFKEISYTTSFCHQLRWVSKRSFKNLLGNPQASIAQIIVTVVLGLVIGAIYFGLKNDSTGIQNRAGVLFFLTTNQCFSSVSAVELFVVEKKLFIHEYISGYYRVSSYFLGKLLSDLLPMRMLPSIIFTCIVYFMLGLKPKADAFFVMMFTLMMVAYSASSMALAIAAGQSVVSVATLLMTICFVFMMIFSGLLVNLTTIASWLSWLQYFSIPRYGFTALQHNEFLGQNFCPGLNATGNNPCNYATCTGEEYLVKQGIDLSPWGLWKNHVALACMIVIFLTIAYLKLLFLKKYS
smiles,measurement,setting,value
"Cc1c(C#N)cccc1-c1cc(-c2cn(Cc3cccc(C(C)(C)O)n3)nn2)nc(N)n1 [Etrumadenant, 3-[2-amino-6-(1-{[6-(2-hydroxypropan-2-yl)pyridine-2-yl]methyl}-1H-1,2,3-triazol-4-yl)pyrimidin-4-yl]-2-methylbenzonitrile]",etrumadenant metabolism mediated by,[1],"mediated by CYP3A4, CYP2C8, and uridine 5′-diphospho glucuronosyltransferase (UGT) enzyme isoforms"
same,substrate of breast cancer resistance protein (BCRP),[2],substrate
